Assay results as given in patent publication US20130071854A1, “METHODS FOR THE IDENTIFICATION AND CHARACTERIZATION OF HDAC INTERACTING COMPOUNDS” (priority 2009, published 2013).
Like-named read-outs stand apart in the source and are kept apart here.

Columns and labels:
[1] = biological target: T1, non-HDAC targets (e.g. BZW2, ISOC2, aldehyde dehydrogenases) (Homo sapiens, UniProt Q96AB3); assay: Chemoproteomic binding profiling, K562 cell extract, SAHA/ITF2357 probe matrix (Kd app); settings: protein ISOC2; selected HDACi off-targets
T1 construct: endogenous in cells; host or cells: K562 whole cell extract
T1 sequence (Q96AB3 1-205): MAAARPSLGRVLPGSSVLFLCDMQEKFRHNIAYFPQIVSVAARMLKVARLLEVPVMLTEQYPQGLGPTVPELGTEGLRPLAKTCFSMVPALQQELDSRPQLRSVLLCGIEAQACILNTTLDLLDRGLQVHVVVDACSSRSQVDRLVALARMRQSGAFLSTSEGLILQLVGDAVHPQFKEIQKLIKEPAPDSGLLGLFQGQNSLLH

[2] = biological target: T2, non-HDAC targets (e.g. BZW2, ISOC2, aldehyde dehydrogenases) (Homo sapiens, UniProt O94788); assay: as above; settings: protein ALDH1A2; selected HDACi off-targets
T2 construct: endogenous in cells; host or cells: K562 whole cell extract
T2 sequence (O94788 1-518): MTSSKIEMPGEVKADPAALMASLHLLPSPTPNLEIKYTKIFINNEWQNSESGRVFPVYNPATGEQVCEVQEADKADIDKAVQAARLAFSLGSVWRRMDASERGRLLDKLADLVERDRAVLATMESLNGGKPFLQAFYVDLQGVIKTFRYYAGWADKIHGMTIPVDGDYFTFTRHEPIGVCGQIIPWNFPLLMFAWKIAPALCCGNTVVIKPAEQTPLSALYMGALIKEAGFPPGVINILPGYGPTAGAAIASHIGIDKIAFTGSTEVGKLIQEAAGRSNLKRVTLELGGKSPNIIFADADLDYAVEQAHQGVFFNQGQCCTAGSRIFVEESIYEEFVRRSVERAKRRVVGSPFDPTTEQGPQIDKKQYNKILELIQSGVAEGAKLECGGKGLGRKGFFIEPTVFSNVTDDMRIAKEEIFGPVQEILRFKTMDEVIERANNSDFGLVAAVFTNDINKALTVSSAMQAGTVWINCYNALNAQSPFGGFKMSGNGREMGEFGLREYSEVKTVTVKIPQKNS

[3] = biological target: T3, non-HDAC targets (e.g. BZW2, ISOC2, aldehyde dehydrogenases) (Homo sapiens, UniProt P16152); assay: as above; settings: protein CBR1; selected HDACi off-targets
T3 construct: Kd^app CBR1; other: protein CBR1; selected HDACi off-targets
T3 sequence (P16152 1-277): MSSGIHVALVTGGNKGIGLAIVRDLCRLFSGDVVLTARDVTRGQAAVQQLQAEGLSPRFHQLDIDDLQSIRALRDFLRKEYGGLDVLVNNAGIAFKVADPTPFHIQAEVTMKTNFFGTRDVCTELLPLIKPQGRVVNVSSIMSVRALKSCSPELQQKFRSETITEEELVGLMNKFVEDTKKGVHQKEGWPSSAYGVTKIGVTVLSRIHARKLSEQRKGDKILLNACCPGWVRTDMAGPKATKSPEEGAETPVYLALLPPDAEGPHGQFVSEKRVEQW

[4] = biological target: T4, non-HDAC targets (e.g. BZW2, ISOC2, aldehyde dehydrogenases) (Homo sapiens, UniProt Q08209); assay: as above; settings: protein PPP3CA; selected HDACi off-targets
T4 construct: Kd^app PPP3CA; other: protein PPP3CA; selected HDACi off-targets

[5] = biological target: T5, non-HDAC targets (e.g. BZW2, ISOC2, aldehyde dehydrogenases) (Homo sapiens, UniProt Q9Y6E2); assay: as above; settings: protein BZW2; selected HDACi off-targets
T5 construct: endogenous in cells; host or cells: K562 whole cell extract
T5 sequence (Q9Y6E2 1-419): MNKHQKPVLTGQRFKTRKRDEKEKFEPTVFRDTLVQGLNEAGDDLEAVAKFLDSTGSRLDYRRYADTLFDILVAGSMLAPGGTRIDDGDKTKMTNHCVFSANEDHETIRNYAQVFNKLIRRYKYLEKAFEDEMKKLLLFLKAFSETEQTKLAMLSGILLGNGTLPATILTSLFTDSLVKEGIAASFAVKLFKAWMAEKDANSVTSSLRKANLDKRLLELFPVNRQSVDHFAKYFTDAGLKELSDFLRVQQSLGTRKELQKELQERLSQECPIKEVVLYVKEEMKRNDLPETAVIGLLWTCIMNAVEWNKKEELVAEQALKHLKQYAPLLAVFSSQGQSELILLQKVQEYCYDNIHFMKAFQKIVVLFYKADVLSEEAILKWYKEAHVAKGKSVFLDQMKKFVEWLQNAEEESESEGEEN

EHMT2 = assay: Chemoproteomic binding profiling, K562 cell extract, SAHA/ITF2357 probe matrix (Kd app), ELSA (ELM-SANT) domain proteins group; set-up: species or system human; settings: protein EHMT2
MIER3 = assay: Chemoproteomic binding profiling, K562 cell extract, SAHA/ITF2357 probe matrix (Kd app), ELSA (ELM-SANT) domain protein; set-up: species or system human; settings: ELSA (ELM-SANT) domain proteins
MIER2 = assay: as above; set-up: species or system human; settings: ELSA (ELM-SANT) domain proteins
RERE = assay: as above; set-up: species or system human; settings: protein RERE; ELSA (ELM-SANT) domain proteins
NuRD complex = assay: Chemoproteomic binding profiling, K562 cell extract, SAHA/ITF2357 probe matrix (Kd app); set-up: species or system human; settings: NuRD complex
CoREST complex = assay: as above; set-up: species or system human; settings: CoREST complex
[6] = system: acetylated histones H3 and H4; assay: Cell-based histone acetylation assay (immunofluorescence, western blotting); set-up: species or system human; settings: K562 and HeLa cells
acetylated tubulin = assay: Cell-based tubulin acetylation assay (immunofluorescence, western blotting); set-up: species or system human; settings: K562 and HeLa cells; immunofluorescence and western blotting
MIER1 = assay: Chemoproteomic binding profiling, K562 cell extract, SAHA/ITF2357 probe matrix (Kd app), ELSA (ELM-SANT) domain protein; set-up: species or system human; settings: ELSA (ELM-SANT) domain proteins
[7] = protein GATAD2A, read-out: Kd^app GATAD2A
[8] = protein GATAD2B, read-out: Kd^app GATAD2B
[9] = protein MBD3, read-out: Kd^app MBD3
[10] = protein MTA1, read-out: Kd^app MTA1
[11] = protein MTA2, read-out: Kd^app MTA2
[12] = protein MTA3, read-out: Kd^app MTA3
[13] = protein GSE1, read-out: Kd^app GSE1
[14] = protein HMG20A, read-out: Kd^app HMG20A
[15] = protein HMG20B, read-out: Kd^app HMG20B
[16] = protein PHF21A, read-out: Kd^app PHF21A
[17] = protein RCOR1, read-out: Kd^app RCOR1
[18] = protein RCOR3, read-out: Kd^app RCOR3
[19] = protein ZMYM2, read-out: Kd^app ZMYM2

SMILES | Kd [1] | Kd [2] | Kd [3] | Kd [4] | Kd [5] | Kd (MIER3) | Kd (RERE) | Kd (NuRD complex; [7]) | Kd (NuRD complex; [8]) | Kd (NuRD complex; [9]) | Kd (NuRD complex; [10]) | Kd (NuRD complex; [11]) | Kd (NuRD complex; [12]) | Kd (CoREST complex; [13]) | Kd (CoREST complex; [14]) | Kd (CoREST complex; [15]) | Kd (CoREST complex; [16]) | Kd (CoREST complex; [17]) | Kd (CoREST complex; [18]) | Kd (CoREST complex; [19]) | also measured
Cc1[nH]c2ccccc2c1CCNCc1ccc(/C=C/C(=O)NO)cc1 [panobinostat] | > 10000 nM | > 10000 nM | 8230 nM | 12100 nM | > 10000 nM | – | – | – | – | – | – | – | – | – | – | – | – | – | – | – | –
O=C(CCCCCN1C(=O)c2cccc3cccc(c23)C1=O)NO [scriptaid] | 350 nM | 5380 nM | > 10000 nM | > 10000 nM | 4840 nM | 320 nM | 790 nM | – | – | – | – | – | – | – | – | – | – | – | – | – | Kd (EHMT2): 1300 nM; Kd (MIER2): 810 nM
CN(C)Cc1c(C(=O)NCCOc2ccc(C(=O)NO)cc2)oc2ccccc12 [PCI-24781] | > 10000 nM | > 10000 nM | > 10000 nM | > 10000 nM | > 10000 nM | 20 nM | 210 nM | 60 nM | 70 nM | 40 nM | 50 nM | 60 nM | 50 nM | 20 nM | 20 nM | 30 nM | 50 nM | 20 nM | 20 nM | 20 nM | Kd (NuRD complex; protein CHD4, read-out: Kd^app CHD4): 160 nM; Kd (NuRD complex; protein MBD2, read-out: Kd^app MBD2): 170 nM; Kd (CoREST complex; protein RCOR2, read-out: Kd^app RCOR2): 20 nM; Kd (CoREST complex; protein ZMYM3, read-out: Kd^app ZMYM3): 40 nM; histone acetylation (in words) [6]: increased steady state acetylation of tubulin and histones; tubulin acetylation (in words) (acetylated tubulin): increased steady state acetylation of tubulin and histones; Kd (MIER1): 60 nM
O=C(/C=C/c1ccc(CN(CCO)CCc2c[nH]c3ccccc23)cc1)NO [dacinostat] | > 10000 nM | > 10000 nM | 880 nM | 1510 nM | 1710 nM | 10 nM | > 10000 nM | 20 nM | 20 nM | 20 nM | 20 nM | 20 nM | 20 nM | 10 nM | 10 nM | 10 nM | 20 nM | 10 nM | 10 nM | 10 nM | Kd (MIER1): 20 nM
